Test results from BindingDB's records for patent US9427428 (Janssen Ireland, 2016).
pEC50: −log10 of the molar value.

Target: T1, Genome polyprotein [810-3010] (Hepatitis C virus genotype 1b (isolate Con1), UniProt Q9WMX2)
T1 construct: 810-3010
Assay: Stable Replicon Assay
Description: The assay utilized the stably transfected cell line Huh-7 luc/neo (hereafter referred to as Huh-Luc). This cell line harbors an RNA encoding a bicistronic expression construct comprising the wild type NS3-NS5B regions of HCV type 1b translated from an Internal Ribosome Entry Site (IRES) from encephalomyocarditis virus (EMCV), preceded by a reporter portion (FfL-luciferase), and a selectable marker portion (neoR, neomycine phosphotransferase). The construct is flanked by 5' and 3' NTRs (non-translated regions) from HCV type 1b. Continued culture of the replicon cells in the presence of G418 (neoR) is dependent on the replication of the HCV RNA. The stably transfected replicon cells that replicate HCV RNA autonomously and to high levels, encoding inter alia luciferase, were used for screening the antiviral compounds. The replicon cells were plated in 384 well plates in the presence of the test and control compounds which were added in various concentrations. Following an incubation of three days, HCV replication was measured by assaying luciferase activity (using standard luciferase assay substrates and reagents and a Perkin Elmer ViewLux™ ultraHTS microplate imager). […] The inhibitory activity of the compound was monitored on the Huh-Luc cells, enabling a dose-response curve for each test compound.

T1 sequence (Q9WMX2 810-3010): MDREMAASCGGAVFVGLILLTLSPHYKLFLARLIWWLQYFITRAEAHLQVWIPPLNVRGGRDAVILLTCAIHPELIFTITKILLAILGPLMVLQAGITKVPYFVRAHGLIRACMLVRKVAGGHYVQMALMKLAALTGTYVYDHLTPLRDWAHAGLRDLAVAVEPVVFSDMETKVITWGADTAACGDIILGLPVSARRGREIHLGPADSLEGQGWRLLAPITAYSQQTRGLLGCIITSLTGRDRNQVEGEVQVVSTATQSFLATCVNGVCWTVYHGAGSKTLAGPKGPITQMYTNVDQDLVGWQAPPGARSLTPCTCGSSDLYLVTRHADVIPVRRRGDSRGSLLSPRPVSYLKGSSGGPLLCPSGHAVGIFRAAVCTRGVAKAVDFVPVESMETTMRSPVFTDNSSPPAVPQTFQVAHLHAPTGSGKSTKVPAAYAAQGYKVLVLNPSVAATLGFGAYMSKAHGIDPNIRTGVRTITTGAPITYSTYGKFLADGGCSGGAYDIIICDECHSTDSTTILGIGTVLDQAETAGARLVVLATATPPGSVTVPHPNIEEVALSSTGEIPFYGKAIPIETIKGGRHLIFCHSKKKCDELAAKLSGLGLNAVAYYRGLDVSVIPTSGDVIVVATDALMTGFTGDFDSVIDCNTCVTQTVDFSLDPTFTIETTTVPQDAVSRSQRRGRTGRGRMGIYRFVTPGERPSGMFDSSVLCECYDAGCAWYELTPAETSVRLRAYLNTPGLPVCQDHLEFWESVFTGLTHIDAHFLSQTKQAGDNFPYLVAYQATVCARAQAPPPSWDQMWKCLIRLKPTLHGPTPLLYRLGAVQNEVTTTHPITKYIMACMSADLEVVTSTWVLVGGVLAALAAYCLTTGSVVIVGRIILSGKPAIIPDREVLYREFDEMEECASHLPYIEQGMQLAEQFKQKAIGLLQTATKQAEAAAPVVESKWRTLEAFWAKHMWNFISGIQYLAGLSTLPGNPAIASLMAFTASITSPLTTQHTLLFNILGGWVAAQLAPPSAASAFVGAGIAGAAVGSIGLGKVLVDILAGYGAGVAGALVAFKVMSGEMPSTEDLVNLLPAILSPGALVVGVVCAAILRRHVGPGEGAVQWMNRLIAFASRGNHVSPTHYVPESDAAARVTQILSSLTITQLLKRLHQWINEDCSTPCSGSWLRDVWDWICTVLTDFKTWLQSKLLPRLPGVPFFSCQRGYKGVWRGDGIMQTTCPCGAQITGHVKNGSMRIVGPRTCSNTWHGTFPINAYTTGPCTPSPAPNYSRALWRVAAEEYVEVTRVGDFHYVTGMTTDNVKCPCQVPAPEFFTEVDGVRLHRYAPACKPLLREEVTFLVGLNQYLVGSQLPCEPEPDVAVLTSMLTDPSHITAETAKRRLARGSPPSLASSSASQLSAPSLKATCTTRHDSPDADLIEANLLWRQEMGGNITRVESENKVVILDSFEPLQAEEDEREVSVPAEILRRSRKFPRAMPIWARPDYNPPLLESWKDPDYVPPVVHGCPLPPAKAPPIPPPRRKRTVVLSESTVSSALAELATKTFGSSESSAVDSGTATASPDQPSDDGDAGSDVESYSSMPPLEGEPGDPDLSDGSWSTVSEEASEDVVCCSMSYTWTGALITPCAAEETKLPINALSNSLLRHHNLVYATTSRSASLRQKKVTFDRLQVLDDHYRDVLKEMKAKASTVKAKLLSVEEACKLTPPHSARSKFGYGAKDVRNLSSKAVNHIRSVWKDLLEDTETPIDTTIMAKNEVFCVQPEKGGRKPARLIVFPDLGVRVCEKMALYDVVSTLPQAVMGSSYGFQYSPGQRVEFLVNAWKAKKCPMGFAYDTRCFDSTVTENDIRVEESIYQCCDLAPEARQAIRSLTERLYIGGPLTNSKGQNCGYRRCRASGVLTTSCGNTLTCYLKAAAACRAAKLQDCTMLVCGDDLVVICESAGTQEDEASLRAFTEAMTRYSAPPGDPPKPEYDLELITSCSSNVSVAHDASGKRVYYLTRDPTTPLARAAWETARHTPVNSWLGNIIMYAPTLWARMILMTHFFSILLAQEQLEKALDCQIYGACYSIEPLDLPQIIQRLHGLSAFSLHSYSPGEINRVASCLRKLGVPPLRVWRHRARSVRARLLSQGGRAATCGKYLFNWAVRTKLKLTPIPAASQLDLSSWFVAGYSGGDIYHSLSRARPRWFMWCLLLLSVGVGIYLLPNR

CC[C@H](C)[C@H](NC(=O)OC)C(=O)N1CCC[C@H]1c1ncc(-c2ccc3cc(-c4ccc5[nH]c([C@@H]6CCCN6C(=O)[C@@H](NC(=O)OC)[C@@H](C)OC)nc5c4)ccc3c2)[nH]1 [US9427428, 21]
pEC50: 8.66
